Patent publication US20230125075A1, “Composition Containing Paper Mulberry Extracts” (LG Household & Health Care Ltd., priority 2020, published 2023)
“And” between values parts separate entries of the source, which are not always exact repeats. Equal entries are not always repeated.

Legend:
[1] = in vitro; conditions: human
Method: (§1) First, HepG2 cells were cultured at 37° C. under 5% CO2 atmosphere in a DMEM culture medium containing 10% FBS. Then, the cultured HepG2 cells were seeded on a 24-well plate at a cell density of 3×10^5 cells/well, followed by incubation for 1 day. Then, various concentrations of test substances were added to HepG2 cells, followed by incubation for 24 hours.
(§2) An MTT solution dissolved in PBS at a concentration of 5 mg/mL was diluted to 10% with the culture medium. The solution was dispensed in a volume of 0.5 to 1.0 mL in a 24-well plate and incubated for 4 hours in an incubator.
(§3) After 4 hours of incubation, the culture medium containing the MTT solution was removed, and 1 mL of DMSO was added and was shaken for 10 minutes. Then, absorbance was measured at 540 nm. At this time, as positive controls, the cells were treated with (1) 100 mM ethanol and (2) 100 mM ethanol+100 ppm Silymarin, respectively.
(§4) As a result of the experiment, liver cell viability was quantified. That is, as liver cell viability increases, the liver health improvement effect increases.
(§5) As the absorbance value increases, liver cell viability increases.

[2] = tested on: HepG2 cells; assay: in vitro; conditions: human, 24 h, 100 mM
Method: as §1, §2, §3, §4, §5

[3] = tested on: THP-1 cells and NK-92 cells; assay: Interferon gamma (IFN-γ) production, ELISA; format: cell-based; conditions: positive control
Method: To confirm the immune function improvement effect of the plant extracts, the amount of interferon gamma produced in […] and macrophages was measured. First, THP-1 cells, which are macrophages, and NK-92 cells, which are natural killer cells, were suspended in an RPMI (Roswell Park Memorial Institute)-1640 culture medium (for THP-1 cells) and a MEMA (Minimum Essential Media Alpha) culture medium (for NK-92 cells), respectively. The suspended cells were seeded on culture plates (24 wells/96 wells). The plant extracts (sample) diluted to various concentrations were added to the cells. At this time, lipopolysaccharide (LPS) (0.1 to 1 μg/mL) was used as a positive control. The sample-treated cells were placed in a 5% CO2 incubator set to 37° C. and incubated for 24 to 48 hours. Then, the supernatant was taken and used as an analysis sample.
The experiment was performed using an enzyme-linked immunosorbent assay (ELISA) method. After coating a 96-well plate with an IFN-γ primary antibody, 1% bovine serum albumin (BSA) was added to block the remaining space. Then, distilled water (blank), an IFN-γ standard solution, and each sample were added to the wells in an amount of 100 μl and incubated at room temperature for 2 hours. 100 μl of a biotin-bound IFN-γ secondary antibody was added to the wells and incubated at room temperature for 2 hours. 100 μl of avidin-bound horseradish peroxidase (HRP) was added and incubated at room temperature or 37° C. for 30 minutes. 100 μl of a TMB substrate solution was added and incubated at room temperature for 4 to 14 minutes. 50 μl of a stop solution (sulfuric acid) was added to stop the reaction. Absorbance at 450 nm wavelength was measured using an ELISA reader. The IFN-γ content of each sample was calculated based on the absorbance of the standard solution.
In this experiment, the effect of the plant extracts on production of interferon gamma was confirmed. As a result of the experiment, the amount of interferon gamma was quantified. As the level of interferon gamma increases, the degree of improvement in immune function increases.
The absorbance is proportional to the IFN-γ content. In addition, increase in IFN-γ production means that immunity is enhanced, such as promotion of differentiation of T lymphocytes, activation of macrophages, and promotion of production of IgG antibodies in B cells.

Compound | viability at 24 h, 100 mM [1] [%] | Liver health-Cell viability (% of control) [2] | Immunity-IFNg secretion ([3]; 1 ppm) | Immunity-IFNg secretion (% of control) ([3]; 1 ppm) | Immunity-IFNg secretion ([3]; LPS 1 ppm) | Immunity-IFNg secretion (% of control) ([3]; LPS 1 ppm)
CCO [Ethanol] | 68.2 | 68.25 (Ethanol % of control |  |  |  | 
lipopolysaccharide [LPS] |  |  | 964.24 % of control | 964.24 % of control and 964.24 (LPS % of control | 964.24 % of control | 964.24 % of control
